Test results taken from publication PMC5428354, “Screening of a natural compound library identifies emodin, a natural compound from Rheum palmatum Linn that inhibits DPP4” (PeerJ, 2017).
Several values for one entry are separate records, joined by “and”; a condition that tells them apart may be missing. Equal entries are not always repeated. Where two headings read alike, the source gives them in different places.

Legend:
[1] = Blood glucose levels after oral emodin; format: in vivo, mice; set-up: Blood glucose: unit not given here; conditions: 30 mg/kg P.O.; for Blood glucose: ob/ob mice, individual animals
Experimental: Balb/c mice (male, six weeks) and ob/ob (-/-) mice (male, six weeks) were purchased from the Shanghai SLAC Laboratory Animal Co. Ltd. (Shanghai, China) and maintained in an air-conditioned room at 20–25 °C under a 12 h dark/light cycle and fed certified standard chow and tap water ad libitum. Experiments were conducted in compliance with the Guide for the Care and Use of Laboratory Animals. Mice were orally administered with emodin (3, 10, or 30 mg /kg) and had their blood collected at 0.5, 1, 2, and 4 h after emodin treatment. The samples were subjected to plasma isolation immediately after collection. Plasma samples were tested for DPP4 activity with a DPP4-Glo assay kit (Promega, Beijing, China) according to the manufacturer’s protocol. The experimental protocol was approved by Animal Care and Use Committee of Xiamen University(XM2015030514).
To test the inhibitory activity of emodin on DPP4 in vivo, an animal experiment was conducted by oral administration of emodin (3, 10 and 30 mg/kg, P.O., n = 5) to Balb/c mice, followed by plasma collection at different time points to measure DPP4 activity in the blood. Plasma samples were collected at 0, 0.5, 1, 2 and 4 h after the oral dose of emodin, and plasma DPP4 activity was measured with a DPP4-Glo assay kit. […] The lowest does of emodin (3 mg/kg) decreased plasma DPP4 activity from baseline, although these levels rebounded after 1 h, whereas 10 and 30 mg/kg doses of emodin decreased plasma DPP4 activity and maintained the lower levels until 2 h post-treatment (Fig. 4). This dose-dependent manner is probably due to the pharmacokinetics of emodin, and 10 and 30 mg/kg have maximized the pharmacokinetic coverage, while 3 mg/kg emodin is only sufficient to maintain 1 h DPP4 inhibition in vivo. In the subsequent experiment, emodin (30 mg/kg, P.O.) was administered on Balb/C mice (n = 5) or ob/ob (-/-) mice (n = 5). The DPP4 activity, blood glucoselevels and GLP-1 activity were tested 0, 1, 2, 4, 8 h after administration. […] This downregulation maintained 2 h in Balb/C mice, and 4 h in ob/ob (-/-) mice, which rebounded afterwards (Fig. 5A). […] Plasma GLP-1 activity was also measured.

[2] = target: DPP8 (Homo sapiens, UniProt Q6V1X1); assay: DPP8 activity assay (BPS Bioscience kit); format: biochemical;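 for DPP8 assay, Emission (450 nm): fluorescence read with excitation at 365 nm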
Experimental: A DPP8 assay kit was purchased from BPS Bioscience (Cat# 800208), and the assay protocol was followed to test for inhibitory activity on DPP8. Briefly, DPP substrate 1 was diluted to make a 100 µM stock solution, and DPP8 protein was diluted in DPP assay buffer to 2 ng/µl (20 ng/reaction). For the tested compounds, 10 µl of diluted DPP8 protein, 5 µl of diluted DPP substrate 1, 84 µl of DPP assay buffer and 1 µl of inhibitor were addedinto the assay system for a total volume of 100 µl. The reaction mixtures were prepared in duplicate on a 96-well plate and incubated at room temperature for 10 min. […]

[3] = target: DPP4 (Homo sapiens, UniProt P27487); assay: DPP4 activity assay (DPP4 inhibitor screening assay kit, Cayman); format: biochemical; set-up: purchased Cayman Chemical, Ann Arbor, MI, USA; conditions: for remaining activity at 10 µM: control mean 100.0;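 for all read-outs here: fluorescence read at excitation 360 nm and emission 460 nm after the enzyme reaction ran 30 min at 37 °C in a 96-well plate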
[4] = target: T1, DPP9 (Homo sapiens, UniProt Q86TI2); assay: DPP9 activity assay (BPS Bioscience kit); format: biochemical; conditions: 100 µM, Well #1-#3;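 for DPP9 assay, Emission (450 nm): 20 ng DPP9 per 100 µl reaction with DPP substrate 1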
T1 construct: purchased BPS Bioscience 800209

[5] = tested on: GLP-1; assay: Plasma GLP-1 activity after oral emodin; format: in vivo, mice; set-up: unit not given here; conditions: 30 mg/kg P.O., C57BL/6 (head), individual animals
[6] = tested on: B6C3F1 mice; set-up: method as in National Toxicology Program, 2001; Wang & Chung, 1997; conditions: 280–2,500 ppm, ref National Toxicology Program, 2001, Wang & Chung, 1997, cited from earlier work

Sequence of DPP8 (Q6V1X1 whole entry): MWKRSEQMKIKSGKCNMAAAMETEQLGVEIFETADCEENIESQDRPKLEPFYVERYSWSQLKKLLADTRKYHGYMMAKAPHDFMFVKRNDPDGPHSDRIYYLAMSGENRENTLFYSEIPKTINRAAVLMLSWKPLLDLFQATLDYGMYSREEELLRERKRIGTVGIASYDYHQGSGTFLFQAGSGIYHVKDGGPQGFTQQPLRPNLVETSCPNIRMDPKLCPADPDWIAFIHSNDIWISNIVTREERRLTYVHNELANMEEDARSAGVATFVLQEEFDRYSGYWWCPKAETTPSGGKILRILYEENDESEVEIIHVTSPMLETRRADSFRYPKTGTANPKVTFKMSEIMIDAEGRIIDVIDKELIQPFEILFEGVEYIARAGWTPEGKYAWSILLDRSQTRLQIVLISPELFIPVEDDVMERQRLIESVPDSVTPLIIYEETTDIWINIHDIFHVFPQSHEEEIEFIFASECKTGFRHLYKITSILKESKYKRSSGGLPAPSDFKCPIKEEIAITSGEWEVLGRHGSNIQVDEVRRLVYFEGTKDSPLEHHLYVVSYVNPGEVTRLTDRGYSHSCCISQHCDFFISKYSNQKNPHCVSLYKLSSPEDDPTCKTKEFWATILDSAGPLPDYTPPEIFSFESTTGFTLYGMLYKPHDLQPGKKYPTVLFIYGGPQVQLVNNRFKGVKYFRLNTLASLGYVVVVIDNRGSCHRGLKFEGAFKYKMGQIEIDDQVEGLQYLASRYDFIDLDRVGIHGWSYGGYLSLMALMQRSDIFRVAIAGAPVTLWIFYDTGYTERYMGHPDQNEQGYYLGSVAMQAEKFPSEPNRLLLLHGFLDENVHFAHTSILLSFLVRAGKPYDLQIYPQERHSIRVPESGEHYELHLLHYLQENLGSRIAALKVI
T1 sequence (Q86TI2 whole entry): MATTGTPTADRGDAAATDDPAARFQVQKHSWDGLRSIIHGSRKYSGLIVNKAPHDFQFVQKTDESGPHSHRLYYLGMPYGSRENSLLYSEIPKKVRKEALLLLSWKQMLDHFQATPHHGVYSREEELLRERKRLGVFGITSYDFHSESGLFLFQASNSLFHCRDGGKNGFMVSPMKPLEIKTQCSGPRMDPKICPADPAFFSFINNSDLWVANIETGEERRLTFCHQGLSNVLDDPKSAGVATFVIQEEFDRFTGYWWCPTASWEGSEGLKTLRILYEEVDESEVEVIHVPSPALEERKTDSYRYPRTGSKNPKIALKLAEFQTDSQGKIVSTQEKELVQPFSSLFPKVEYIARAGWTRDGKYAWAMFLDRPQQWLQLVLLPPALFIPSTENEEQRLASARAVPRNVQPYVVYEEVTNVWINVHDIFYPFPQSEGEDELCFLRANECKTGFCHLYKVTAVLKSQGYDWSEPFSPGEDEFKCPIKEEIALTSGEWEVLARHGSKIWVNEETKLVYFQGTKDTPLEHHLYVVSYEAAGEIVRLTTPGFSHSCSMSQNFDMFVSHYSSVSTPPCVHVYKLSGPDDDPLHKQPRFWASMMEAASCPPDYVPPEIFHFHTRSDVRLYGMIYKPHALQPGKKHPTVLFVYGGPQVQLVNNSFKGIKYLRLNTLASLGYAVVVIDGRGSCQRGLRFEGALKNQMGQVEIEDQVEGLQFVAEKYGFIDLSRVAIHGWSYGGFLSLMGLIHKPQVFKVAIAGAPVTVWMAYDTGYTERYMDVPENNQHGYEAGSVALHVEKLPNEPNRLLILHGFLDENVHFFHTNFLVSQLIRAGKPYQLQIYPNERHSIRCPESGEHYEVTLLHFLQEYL
Sequence of DPP4 (P27487 whole entry): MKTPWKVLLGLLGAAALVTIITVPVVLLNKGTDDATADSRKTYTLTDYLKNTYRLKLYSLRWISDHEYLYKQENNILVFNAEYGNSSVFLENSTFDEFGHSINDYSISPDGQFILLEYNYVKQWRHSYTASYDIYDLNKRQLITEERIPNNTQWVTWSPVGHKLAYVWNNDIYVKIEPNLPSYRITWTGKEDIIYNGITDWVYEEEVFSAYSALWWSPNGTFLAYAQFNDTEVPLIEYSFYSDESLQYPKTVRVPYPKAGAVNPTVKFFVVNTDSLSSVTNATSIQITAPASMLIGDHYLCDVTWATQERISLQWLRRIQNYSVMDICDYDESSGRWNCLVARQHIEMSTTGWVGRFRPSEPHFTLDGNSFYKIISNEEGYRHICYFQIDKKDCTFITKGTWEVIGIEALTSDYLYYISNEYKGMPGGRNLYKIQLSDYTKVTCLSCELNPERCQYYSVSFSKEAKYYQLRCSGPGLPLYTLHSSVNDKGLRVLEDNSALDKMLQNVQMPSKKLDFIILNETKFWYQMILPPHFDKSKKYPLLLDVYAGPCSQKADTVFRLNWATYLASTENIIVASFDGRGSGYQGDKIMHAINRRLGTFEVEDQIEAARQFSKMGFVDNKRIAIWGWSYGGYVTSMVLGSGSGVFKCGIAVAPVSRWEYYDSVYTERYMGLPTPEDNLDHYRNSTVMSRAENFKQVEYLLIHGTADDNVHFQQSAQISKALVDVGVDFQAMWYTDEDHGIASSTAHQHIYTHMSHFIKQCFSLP

Cc1cc(O)c2c(c1)C(=O)c1cc(O)cc(O)c1C2=O [Emodin]
effect on blood glucose levels from baseline ([1]; both Balb/C mice and ob/ob (-/-) mice): significantly downregulated
time for which downregulation of blood glucose was maintained ([1]; both Balb/C mice and ob/ob (-/-) mice, baseline again at 8 h): 4 h
Blood glucose ([1]; 0 hours (baseline)): 18.6 and 13.3 and 11.5 and 12.1 and 14.4
Blood glucose ([1]; 1 hours): 9.4 and 11.3 and 13.1 and 10.9 and 12
Blood glucose ([1]; 2 hours): 11 and 9.2 and 8.1 and 9.5 and 10.9
Blood glucose ([1]; 4 hours): 8 and 10.3 and 8.2 and 7.3 and 9.2
Blood glucose ([1]; 8 hours): 14.7 and 14.2 and 13.9 and 12.8 and 13.1
DPP8 assay, Emission (450 nm) ([2]; 100 µM, Exp #1-#5): 25326 and 25088 and 25860 and 47385 and 48311
DPP8 activity ([2]; 100 µM, Exp #1-#5, DMSO = Ctrl): 91.7 % of Ctrl and 91.1 % of Ctrl and 90.2 % of Ctrl and 93.0 % of Ctrl and 89.9 % of Ctrl
activity against DPP8 ([2]; tested at 100 µM): without inhibiting
inhibition at 10 µM ([3]; 10 µM, library screen): > 50%
remaining activity at 10 µM ([3]; 0.5 h, 10 µM, Figure 1A raw data, read-out: DPP4 activity in library screen, Exp 1): 22%
remaining activity at 10 µM ([3]; 0.5 h, 10 µM, Figure 1A raw data, read-out: DPP4 activity in library screen, Exp 2): 22.6%
remaining activity at 10 µM ([3]; 0.5 h, 10 µM, Figure 1A raw data, read-out: DPP4 activity in library screen, Exp 3): 41.2%
remaining activity at 10 µM ([3]; 0.5 h, 10 µM, mean of Exp 1-3, read-out: DPP4 activity in library screen, Mean): 28.6%
remaining activity at 0.39 µM ([3]; 0.5 h, Emodin 0.39 μM, Exp 1-4): 100%
remaining activity at 0.78125 µM ([3]; 0.5 h, Emodin 0.78125 μM, Exp 1-4): 104%
remaining activity at 1.5625 µM ([3]; 0.5 h, Emodin 1.5625 μM, Exp 1-4): 97.8%
remaining activity at 3.125 µM ([3]; 0.5 h, Emodin 3.125 μM, Exp 1-4): 83.5%
remaining activity at 12.5 µM ([3]; 0.5 h, Emodin 12.5 μM, Exp 1-4): 37%
remaining activity at 25 µM ([3]; 0.5 h, Emodin 25 μM, Exp 1-4): 25.1%
remaining activity at 100 µM ([3]; 0.5 h, Emodin 100 μM, Exp 1-4): 3.77%
Ki ([3]; DPP4, means ± SE): 0.85 ± 0.06 µM
IC50 ([3]; in vitro, means ± SE, read-out: IC50 of DPP4 Inhibition): 5.7 µM and 5.76 µM
DPP9 assay, Emission (450 nm) [4]: 47887 and 46825 and 46023
DPP9 activity ([4]; DMSO = Ctrl): 98.3 % of Ctrl and 96.1 % of Ctrl and 94.5 % of Ctrl
GLP-1 ([5]; 0 hours (baseline)): 2.4022 and 3.1852 and 3.2635 and 2.9242 and 1.0711
GLP-1 ([5]; 1 hours): 2.5849 and 2.8981 and 2.4805 and 2.9503 and 0.9928
GLP-1 ([5]; 2 hours): 2.6371 and 2.5849 and 2.9242 and 1.3843 and 2.0629
GLP-1 ([5]; 4 hours): 2.6893 and 3.1069 and 3.0808 and 3.2113 and 0.4708
GLP-1 ([5]; 8 hours): 1.9063 and 3.394 and 3.3157 and 2.0107 and 0.2881
carcinogenic activity ([6]; female B6C3F1 mice): no evidence of carcinogenic activity
nephropathy ([6]; female mice): increased incidences
renal tubule pigmentation ([6]; male and female mice): increased incidences
